The test deals with Mpro-WT and Mpro-Δ23G 1:1 mixture. Particulars: hamster, in vivo.

In the case of `CC(C)(C)[C@H](NC(=O)C(F)(F)F)C(=O)N1C[C@H]2[C@@H]([C@H]1C(=O)N[C@H](C#N)C[C@@H]1CCNC1=O)C2(C)C` [nirmatrelvir], the Mpro-WT dominance is listed as greater than 97%.
